Tested on: 2,3-DPG blood levels
Experiment: Phase 1 SAD/MAD: blood 2,3-DPG (LC-MS/MS) in healthy volunteers
Type: in vivo, human
Experimental: In this study, SAD/MAD cohorts are randomized (3 to 1) to receive Compound 1 or placebo (P). Compound 1 was evaluated first in 4 healthy SAD cohorts and 4 healthy MAD (14-day dosing period) cohorts. Based on the safety, and PK/PD profile from HS, Compound 1 is then evaluated in 1 SCD SAD cohort and 2 SCD MAD cohorts. Specifically, based on the safety and pharmacokinetic/pharmacodynamics (PK/PD) profile in healthy volunteer studies, Compound 1 is evaluated in patients (pts) with SCD, first in a single dose (SD or SAD) cohort and then in multiple-dose (MD or MAD) cohorts (14-day and 12-week). Safety assessments include AEs, vital signs, ECGs and laboratory parameters. PK/PD blood sampling was performed on Day 1 (SAD/MAD) and Day 14 (MAD) and up to 72 h after the last dose and at the end-of-study visit. PD parameters included 2,3-DPG, ATP, and p50 in all cohorts with additional PD studies (including oxygen scan) performed only in the SCD cohorts. PD parameters included 2,3-DPG, ATP, p50, RBC deformability with controlled deoxygenation and reoxygenation (Lorrca® oxygen scan) and varying osmolality (Lorrca® osmoscan)). To maintain study blind, pt identifiers were removed when needed.
In the SAD cohorts, the subjects' blood 2,3-DPG levels were measured periodically after dosing by a qualified LC-MS/MS method for the quantitation of 2,3-DPG in blood. Decreased 2,3-DPG blood levels were observed 6 hours following a single dose of Compound 1 at all dose levels (earlier timepoints were not collected). Maximum decreases in 2,3-DPG levels generally occurred ˜24 hours after the first dose with the reduction sustained ˜48-72 hr postdose. Table 15 reports the median percentage change in 2,3-DPG blood levels, relative to baseline, measured over time in healthy volunteers after a single dose of Compound 1 (200 mg, 400 mg, 700 mg, or 1000 mg) or placebo. Table 16 reports the mean percentage change in 2,3-DPG blood levels, relative to baseline, measured over time in healthy volunteers after a single dose of Compound 1 (200 mg, 400 mg, 700 mg, or 1000 mg). Accordingly, the median and mean reduction in the concentration of 2,3-DPG, relative to baseline, was at least about 30% at all dose levels tested 24 hours after administration of the single dose.
In the MAD cohorts, the subjects' blood 2,3-DPG levels were measured periodically after dosing by a qualified LC-MS/MS method for the quantitation of 2,3-DPG in blood. […] Table 18B reports the mean percentage change in 2,3-DPG blood levels, relative to baseline, measured over time after the first dose on days 1 and 14 in healthy volunteers who received daily doses of Compound 1 (100 mg BID, 200 mg BID, 300 mg BID, or 400 mg QD) for 14 days. Accordingly, the median and mean reduction in the concentration of 2,3-DPG, relative to baseline, was at least about 25% at all dose levels tested 24 hours after administration of the first dose on day 1 and at least about 40% at all dose levels tested 24 hours after administration of the first dose on day 14.
The following procedures are employed for the analysis of ATP and 2,3-DPG in human whole blood K2EDTA using a protein precipitation extraction procedure and analysis by LC-MS/MS.
The following procedures are used for sample extraction prior to analysis via LC-MS/MS. 15.0 μL of the calibration standards, quality controls, matrix blanks, and samples are aliquoted into a 96-well plate. 50.0 μL of the internal standard spiking solution is added to all samples on the plate, with the exception of the matrix blank samples; 50.0 μL of water is added to the matrix blank samples. Subsequently, 150 μL of water is added to all samples on the plate. The plate is then covered and agitated by vortex at high speed for ten minutes, after which 750 μL of methanol is added to all samples on the plate. The plate is covered and agitated by vortex for approximately 1 minute. The plate is then centrifuged at approximately 3500 RPM at approximately 4° C. for five minutes. […]

[1] = HV 100 mg BID, Day 1, 0 h after first daily dose
[2] = HV 100 mg BID, Day 1, 6 h after first daily dose
[3] = HV 100 mg BID, Day 1, 8 h after first daily dose
[4] = HV 100 mg BID, Day 1, 12 h after first daily dose
[5] = HV 100 mg BID, Day 1, 16 h after first daily dose
[6] = HV 100 mg BID, Day 1, 24 h after first daily dose
[7] = HV 100 mg BID, Day 14, 0 h after first daily dose
[8] = HV 100 mg BID, Day 14, 6 h after first daily dose
[9] = HV 100 mg BID, Day 14, 8 h after first daily dose
[10] = HV 100 mg BID, Day 14, 12 h after first daily dose
[11] = HV 100 mg BID, Day 14, 16 h after first daily dose
[12] = HV 100 mg BID, Day 14, 24 h after first daily dose
[13] = HV 100 mg BID, Day 14, 48 h after first daily dose
[14] = HV 100 mg BID, Day 14, 72 h after first daily dose
[15] = HV 200 mg BID, Day 1, 0 h after first daily dose
[16] = HV 200 mg BID, Day 1, 6 h after first daily dose
[17] = HV 200 mg BID, Day 1, 8 h after first daily dose
[18] = HV 200 mg BID, Day 1, 12 h after first daily dose
[19] = HV 200 mg BID, Day 1, 16 h after first daily dose
[20] = HV 200 mg BID, Day 1, 24 h after first daily dose
[21] = HV 200 mg BID, Day 14, 0 h after first daily dose
[22] = HV 200 mg BID, Day 14, 6 h after first daily dose
[23] = HV 200 mg BID, Day 14, 8 h after first daily dose
[24] = HV 200 mg BID, Day 14, 12 h after first daily dose
[25] = HV 200 mg BID, Day 14, 16 h after first daily dose
[26] = HV 200 mg BID, Day 14, 24 h after first daily dose
[27] = HV 200 mg BID, Day 14, 48 h after first daily dose
[28] = HV 200 mg BID, Day 14, 72 h after first daily dose
[29] = HV 300 mg BID, Day 1, 0 h after first daily dose
[30] = HV 300 mg BID, Day 1, 6 h after first daily dose
[31] = HV 300 mg BID, Day 1, 8 h after first daily dose
[32] = HV 300 mg BID, Day 1, 12 h after first daily dose
[33] = HV 300 mg BID, Day 1, 16 h after first daily dose
[34] = HV 300 mg BID, Day 1, 24 h after first daily dose
[35] = HV 300 mg BID, Day 14, 0 h after first daily dose
[36] = HV 300 mg BID, Day 14, 8 h after first daily dose
[37] = HV 300 mg BID, Day 14, 12 h after first daily dose
[38] = HV 300 mg BID, Day 14, 16 h after first daily dose
[39] = HV 300 mg BID, Day 14, 24 h after first daily dose
[40] = HV 300 mg BID, Day 14, 48 h after first daily dose
[41] = HV 300 mg BID, Day 14, 72 h after first daily dose
[42] = HV 400 mg QD, Day 1, 0 h after first daily dose
[43] = HV 400 mg QD, Day 1, 8 h after first daily dose
[44] = HV 400 mg QD, Day 1, 12 h after first daily dose
[45] = HV 400 mg QD, Day 1, 16 h after first daily dose
[46] = HV 400 mg QD, Day 1, 24 h after first daily dose
[47] = HV 400 mg QD, Day 14, 0 h after first daily dose

O=C([C@H](CO)c1ccccc1)N1CC2=C(C1)CN(S(=O)(=O)c1cnc3c(c1)OCCO3)C2 (single isomer, unassigned) [Compound 1]
Mean Percentage Change in 2,3-DPG Levels [1]: 0% | Median Percentage Change in 2,3-DPG Levels [1]: 0.0% | Mean Percentage Change in 2,3-DPG Levels [2]: −15% | Median Percentage Change in 2,3-DPG Levels [2]: −16% | Mean Percentage Change in 2,3-DPG Levels [3]: −13% | Median Percentage Change in 2,3-DPG Levels [3]: −12% | Mean Percentage Change in 2,3-DPG Levels [4]: −18% | Median Percentage Change in 2,3-DPG Levels [4]: −18% | Mean Percentage Change in 2,3-DPG Levels [5]: −20% | Median Percentage Change in 2,3-DPG Levels [5]: −18% | Mean Percentage Change in 2,3-DPG Levels [6]: −29% | Median Percentage Change in 2,3-DPG Levels [6]: −28% | Mean Percentage Change in 2,3-DPG Levels [7]: −43% | Median Percentage Change in 2,3-DPG Levels [7]: −42.0% | Mean Percentage Change in 2,3-DPG Levels [8]: −44% | Median Percentage Change in 2,3-DPG Levels [8]: −44% | Mean Percentage Change in 2,3-DPG Levels [9]: −45% | Median Percentage Change in 2,3-DPG Levels [9]: −45% | Mean Percentage Change in 2,3-DPG Levels [10]: −44% | Median Percentage Change in 2,3-DPG Levels [10]: −44% | Mean Percentage Change in 2,3-DPG Levels [11]: −42% | Median Percentage Change in 2,3-DPG Levels [11]: −44% | Mean Percentage Change in 2,3-DPG Levels [12]: −43% | Median Percentage Change in 2,3-DPG Levels [12]: −44% | Mean Percentage Change in 2,3-DPG Levels [13]: −32% | Median Percentage Change in 2,3-DPG Levels [13]: −35% | Mean Percentage Change in 2,3-DPG Levels [14]: −22% | Median Percentage Change in 2,3-DPG Levels [14]: −20% | Mean Percentage Change in 2,3-DPG Levels [15]: 0% | Median Percentage Change in 2,3-DPG Levels [15]: 0.0% | Mean Percentage Change in 2,3-DPG Levels [16]: −16% | Median Percentage Change in 2,3-DPG Levels [16]: −13% | Mean Percentage Change in 2,3-DPG Levels [17]: −19% | Median Percentage Change in 2,3-DPG Levels [17]: −22% | Mean Percentage Change in 2,3-DPG Levels [18]: −22% | Median Percentage Change in 2,3-DPG Levels [18]: −23% | Mean Percentage Change in 2,3-DPG Levels [19]: −33% | Median Percentage Change in 2,3-DPG Levels [19]: −34% | Mean Percentage Change in 2,3-DPG Levels [20]: −45% | Median Percentage Change in 2,3-DPG Levels [20]: −48% | Mean Percentage Change in 2,3-DPG Levels [21]: −49% | Median Percentage Change in 2,3-DPG Levels [21]: −49% | Mean Percentage Change in 2,3-DPG Levels [22]: −49% | Median Percentage Change in 2,3-DPG Levels [22]: −49% | Mean Percentage Change in 2,3-DPG Levels [23]: −47% | Median Percentage Change in 2,3-DPG Levels [23]: −44% | Mean Percentage Change in 2,3-DPG Levels [24]: −43% | Median Percentage Change in 2,3-DPG Levels [24]: −42% | Mean Percentage Change in 2,3-DPG Levels [25]: −49% | Median Percentage Change in 2,3-DPG Levels [25]: −43% | Mean Percentage Change in 2,3-DPG Levels [26]: −47% | Median Percentage Change in 2,3-DPG Levels [26]: −48% | Mean Percentage Change in 2,3-DPG Levels [27]: −40% | Median Percentage Change in 2,3-DPG Levels [27]: −39% | Mean Percentage Change in 2,3-DPG Levels [28]: −23% | Median Percentage Change in 2,3-DPG Levels [28]: −20% | Mean Percentage Change in 2,3-DPG Levels [29]: 0% | Median Percentage Change in 2,3-DPG Levels [29]: 0.0% | Mean Percentage Change in 2,3-DPG Levels [30]: −20% | Median Percentage Change in 2,3-DPG Levels [30]: −19% | Mean Percentage Change in 2,3-DPG Levels [31]: −22% | Median Percentage Change in 2,3-DPG Levels [31]: −24% | Mean Percentage Change in 2,3-DPG Levels [32]: −31% | Median Percentage Change in 2,3-DPG Levels [32]: −32% | Mean Percentage Change in 2,3-DPG Levels [33]: −39% | Median Percentage Change in 2,3-DPG Levels [33]: −41% | Mean Percentage Change in 2,3-DPG Levels [34]: −47% | Median Percentage Change in 2,3-DPG Levels [34]: −51% | Mean Percentage Change in 2,3-DPG Levels [35]: −57% | Median Percentage Change in 2,3-DPG Levels [35]: −59% | Mean Percentage Change in 2,3-DPG Levels (HV 300 mg BID, Day 14, 6 h after first daily dose): −56% | Mean Percentage Change in 2,3-DPG Levels [36]: −55% | Median Percentage Change in 2,3-DPG Levels [36]: −55% | Mean Percentage Change in 2,3-DPG Levels [37]: −54% | Median Percentage Change in 2,3-DPG Levels [37]: −55% | Mean Percentage Change in 2,3-DPG Levels [38]: −53% | Median Percentage Change in 2,3-DPG Levels [38]: −52% | Mean Percentage Change in 2,3-DPG Levels [39]: −52% | Median Percentage Change in 2,3-DPG Levels [39]: −53% | Mean Percentage Change in 2,3-DPG Levels [40]: −43% | Median Percentage Change in 2,3-DPG Levels [40]: −45% | Mean Percentage Change in 2,3-DPG Levels [41]: −34% | Median Percentage Change in 2,3-DPG Levels [41]: −33% | Mean Percentage Change in 2,3-DPG Levels [42]: 0% | Median Percentage Change in 2,3-DPG Levels [42]: 0.0% | Mean Percentage Change in 2,3-DPG Levels (HV 400 mg QD, Day 1, 6 h after first daily dose): −26% | Mean Percentage Change in 2,3-DPG Levels [43]: −29% | Median Percentage Change in 2,3-DPG Levels [43]: −27% | Mean Percentage Change in 2,3-DPG Levels [44]: −38% | Median Percentage Change in 2,3-DPG Levels [44]: −38% | Mean Percentage Change in 2,3-DPG Levels [45]: −42% | Median Percentage Change in 2,3-DPG Levels [45]: −41% | Mean Percentage Change in 2,3-DPG Levels [46]: −48% | Median Percentage Change in 2,3-DPG Levels [46]: −48% | Mean Percentage Change in 2,3-DPG Levels [47]: −52% | Median Percentage Change in 2,3-DPG Levels [47]: −51% | Mean Percentage Change in 2,3-DPG Levels (HV 400 mg QD, Day 14, 6 h after first daily dose): −54%

From patent US12128035B2, “Activating pyruvate kinase R” (Novo Nordisk Health Care AG, priority 2021, dated 2024)
